The source of these data is article PMC11054433, “Nature-Inspired 1-Phenylpyrrolo[2,1-a]isoquinoline Scaffold for Novel Antiproliferative Agents Circumventing P-Glycoprotein-Dependent Multidrug Resistance” (Pharmaceuticals, 2024).

For data set [1], the target named is multidrug-resistance-associated protein-1 (MRP1) (Homo sapiens, UniProt P33527). Nature of the data set: Calcein-AM transport inhibition in MDCK-MRP1 cells overexpressing MRP1.
Method: (§3) The P-gp inhibitory potency of eight DHPIQs was evaluated by measuring the transport inhibition of calcein-AM, a profluorescent P-gp substrate, in the MDCK-MDR1 cell line overexpressing P-gp. Moreover, to evaluate the MRP1 inhibitor activity, the same compounds were screened in MDCK-MRP1 cells overexpressing MRP1.
(§4) According to previously described assays [9], MDCK-MDR1 and MDCK-MRP1 cell lines (50,000 cells per well) were seeded into a black CulturePlate 96-well plate with 100 μL medium and allowed to become confluent overnight. […] Saline buffer (100 μL) was added to each well, and the plate was read by a PerkinElmer Victor3 spectrofluorimeter at excitation and emission wavelengths of 485 nm and 535 nm, respectively. In these experimental conditions, calcein cell accumulation in the absence and in the presence of the test compound was evaluated, and the fluorescence basal level was estimated by untreated cells. In the treated wells, the increase of fluorescence with respect to basal level was measured. IC50 values were determined by interpolating the curve of fluorescence increase percentage versus log [conc.].
Data set [2] has as its system A549 (lung adenocarcinoma) cells. Briefly: MTT antiproliferative (cytotoxicity) assay, A549 cells. The following applies: Homo sapiens, A549, 72 h, mean (SD), triplicate, n.a. = not active at 100 μM, >100 = less than 60% inhibition at 100 μM. The class given is cell-based, Human.
Method: The antiproliferative activity of the newly synthesized compounds, along with some previously reported analogs, and camptothecin and doxorubicin as positive controls was determined by the MTT (3-(4,5-dimethylthiazol-2-yl)-2,5-diphenyltetrazolium bromide) assay. […] Each concentration of the test compound was assayed in triplicate. […] Wells with the 0.1% v/v DMSO were used as controls. After incubation, 20 μL of MTT (5 mg·mL^−1) was added to each well and the plates were incubated for a further 2 h. Next, media were removed from the plates, and 100 μL of DMSO was added to each well to dissolve the formed formazan crystals. Using a flatbed analyzer (Victor^3, PerkinElmer, Waltham, MA, USA), the optical density was determined at 530 nm, minus the measured background absorbance at 620 nm.
Data set [3] has as its system HeLa (adenocarcinoma of the cervix uterus) cells. Nature of the data set: MTT antiproliferative (cytotoxicity) assay, HeLa cells. It is filed as cell-based, Human. Conditions: Homo sapiens, HeLa, 72 h, mean (SD), triplicate, n.a. = not active at 100 μM, >100 = less than 60% inhibition at 100 μM. As for the experimental part: (§1) The newly synthesized 1-Ph-DHPIQs, along with the previously reported derivatives 4a, 4c, 6a and 6c, with camptothecin and doxorubicin as positive controls, were tested at the maximum concentration of 100 μM for their antiproliferative activity, using an MTT assay on RD, HCT116, HeLa and A549 cancer cell lines. Compounds showing more than 50% inhibition were tested at lower scalar concentrations, and IC50 values were calculated by interpolation of the dose-response curves (Table 1). […]
(§2) The antiproliferative activity of the newly synthesized compounds, along with some previously reported analogs, and camptothecin and doxorubicin as positive controls was determined by the MTT (3-(4,5-dimethylthiazol-2-yl)-2,5-diphenyltetrazolium bromide) assay. The cells were seeded at a concentration of 1 × 10 ^4 cells/200 μL in a 96-well plate and cultured at 37 °C in a humidified atmosphere with 5% CO2. After 24 h of incubation, scalar concentrations of each test compound (100 to 1.56 μmol·L^−1) were added to the cancer cell culture and the cells were then cultured under the same conditions for 72 hr. Each concentration of the test compound was assayed in triplicate. […] Wells with the 0.1% v/v DMSO were used as controls. After incubation, 20 μL of MTT (5 mg·mL^−1) was added to each well and the plates were incubated for a further 2 h. Next, media were removed from the plates, and 100 μL of DMSO was added to each well to dissolve the formed formazan crystals. Using a flatbed analyzer (Victor^3, PerkinElmer, Waltham, MA, USA), the optical density was determined at 530 nm, minus the measured background absorbance at 620 nm. The concentration value, which causes 50% inhibition of cell population growth (IC50), was determined from the dose-dependent curves using the OriginPro 9.0 software.

Data set [4] concerns the target P-glycoprotein (P-gp) (Homo sapiens, UniProt P08183). Nature of the data set: Calcein-AM transport inhibition in MDCK-MDR1 cells overexpressing P-gp. Conditions: for IC50: calcein-AM, mean (SD), at least two independent experiments in triplicate; for P-gp/MRP1 selectivity (toward P-gp): ratio of MRP1 and P-gp inhibition potency.
Method: as §3, §4
The nature of data set [5]: Lipophilicity by RP-HPLC (polycratic capacity factor). The class given is physicochemical. The following applies: capacity factor extrapolated to 100% aqueous mobile phase, aqueous component pH 4.7. As for the experimental part: To quantitate the effect of hydrophobicity on the biological activity of the examined compounds, a relative lipophilicity scale was determined by RP-HPLC [20]. The polycratic capacity factor (log k′w) for each compound in Table 2 was experimentally determined (details in the experimental section) and compared with 1-octanol–water partition coefficient calculated (Clog P) with ACDLabs software (release 10.0; Advanced Chemistry Development, Inc., Toronto, ON, Canada). Log k′w values are quite well correlated with Clog Ps for the whole series (r^2 = 0.791). However, omitting from the regression the two Mannich bases 8b and 8c, which, due to their basicity (pKas about 6.9, estimated by ACDLabs software), should be predominantly in the protonated forms at pH 4.7 (i.e., the pH of the aqueous component of the mobile phase in RP-HPLC), the correlation slightly improves (r^2 = 0.859), providing a linear equation with a slope equal to +0.8 and an intercept of about −0.1.
The lipophilicity parameters were determined by an RP-HPLC technique. Methanol solution of DHPIQ derivatives (1 mg/mL) were analyzed by an Agilent 1260 infinite HPLC system (Agilent Technologies, Milan, Italy) equipped with a diode array detector (DAD), and a Phenomenex, Kinetex 5 μ, C18, 100 Å (150 × 4.6 mm), and eluted with different percentage of mobile phase composition (0.05 increments of MeOH volume fractions in 20 mM ammonium formate buffer at pH 4.7 or water 0.1% v/v TFA, with φ ranging between 0.85 and 0.30). The chromatographic measurements were carried out at 25 ± 1 °C at a flow rate of 1 mL·min^−1 and at 265, 290, 320 nm wavelengths. The log of capacity factors (log k′ = log (tR − t0)/t0) of each compound at different mobile phase compositions was calculated; tR represents the retention time of the solute and t0 is the column dead time, measured as the elution time of a KNO3 solution in MeOH. For each compound, the log k′ values increased linearly with decreasing MeOH volume fraction. The logarithms of the capacity factor extrapolated to 100% aqueous mobile phase (log k′w) were calculated from the linear regressions on at least five data points (r^2 > 0.9984).

Data set [6] can be described thus: Kinetic solubility in PBS by RP-HPLC. The following applies: phosphate buffered saline, 25 °C, aqueous buffer, kinetic from dmso stock; PBS (50 mM, pH 7.4, 0.15 M KCl) at 25 ± 1 °C; read-out: S (solubility). It is filed as physicochemical. As for the experimental part:
Sample solution at 200 μM in PBS (50 mM, pH 7.4, KCl 0.15 M) from a 10 mM stock solution in DMSO was incubated at room temperature (25 ± 1 °C) for 2 h, following shaking of the suspension on an orbital shaker at 250 rpm, and then separated by […]. Immediately after the filtration step, 100 µL of filtrate was transferred into 100 µL of 1:1 (v/v) mixture of DMSO and PBS (50 mM, pH 7.4, KCl 0.15 M), to avoid precipitation from the saturated solution and analyzed by HPLC. The peak area was plotted against a calibration curve of the tested compound in MeOH [21]. Analytical conditions were as follows. Mobile Phase: MeOH/ammonium formate 20 mM pH 4.7 (70:30, 75:25); MeOH 0.1% TFA/H2O 0.1% TFA (70:30, 60:40); stationary phase: Phenomenex, Kinetex 5 μ, C18, 100 Å (150 × 4.6 mm); flux: 1 mL/min; injection: 10 μL, 265, 290, 320 nm wavelength. HPLC analyses were performed on an Agilent HPLC 1260 Infinity Series Integrated System (Agilent Technologies, Milan, Italy).

In data set [7] the test system is HCT116 (colon cancer) cells. Nature of the data set: MTT antiproliferative (cytotoxicity) assay, HCT116 cells. It is filed as cell-based, Human. Conditions: Homo sapiens, HCT-116, 72 h, mean (SD), triplicate, n.a. = not active at 100 μM, >100 = less than 60% inhibition at 100 μM. Here is the method:
as §1, §2

In data set [8] the test system is RD (rhabdomyosarcoma) cells. Nature of the data set: MTT antiproliferative (cytotoxicity) assay, RD cells. It is filed as cell-based, Human. The following applies: Homo sapiens, Rhabdomyosarcoma cell, 72 h, mean (SD), triplicate, n.a. = not active at 100 μM, >100 = less than 60% inhibition at 100 μM. As for the experimental part: as §1, §2
In data set [9] the target is human serum albumin (HSA) (Homo sapiens, UniProt P02768). Nature of the data set: Binding affinity to immobilized HSA by surface plasmon resonance (SPR).
Sequence of human serum albumin (HSA) (P02768 25-609): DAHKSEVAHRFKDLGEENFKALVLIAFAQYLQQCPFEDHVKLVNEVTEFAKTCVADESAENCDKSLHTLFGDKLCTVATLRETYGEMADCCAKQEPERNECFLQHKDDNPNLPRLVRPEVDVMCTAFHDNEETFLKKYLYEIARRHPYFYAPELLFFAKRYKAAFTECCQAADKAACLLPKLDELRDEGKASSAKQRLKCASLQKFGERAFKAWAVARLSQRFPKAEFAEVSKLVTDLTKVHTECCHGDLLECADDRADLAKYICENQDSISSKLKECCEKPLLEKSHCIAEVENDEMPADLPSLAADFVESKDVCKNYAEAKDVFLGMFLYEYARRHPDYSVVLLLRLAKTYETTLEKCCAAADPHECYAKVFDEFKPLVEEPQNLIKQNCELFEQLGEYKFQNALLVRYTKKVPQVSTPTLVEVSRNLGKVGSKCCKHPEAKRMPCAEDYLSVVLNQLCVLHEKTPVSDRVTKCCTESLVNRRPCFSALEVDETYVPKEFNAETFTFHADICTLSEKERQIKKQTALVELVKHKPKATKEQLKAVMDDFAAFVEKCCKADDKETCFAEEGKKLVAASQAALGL
Method: By plotting the response at equilibrium, the dissociation constant (KD) value was determined for each test compound.
Fatty acid-free HSA (A3782 from Merck, KGaA Sigma-Aldrich, Darmstadt, Germany) was applied to functionalize the surface of a COOH V sensor chip (Pall FortèBio, Fremont Boulevard, CA, USA), by using amine coupling (EDC/NHS). HSA aqueous stock solution was diluted at the final concentration of 50 μg·mL^−1 in 10 mM sodium acetate buffer (pH 5.0), and immobilization in peripheral flow cells 1 and 3 (unmodified dextran surface in middle flow cell 2 used as a reference) at a final apparent level of about 5000 RU was achieved by applying the following protocol: injection of EDC/NHS (freshly mixed 0.4 M EDC and 0.1 M NHS) 1:1 v/v at a flow of 25 μL·min^−1 for 4 min; injection of HSA solution at a flow of 25 μL·min^−1 for 8 min; capping on unreacted activated carboxyl groups by injection of 1 M ethanolamine solution (pH 9) at a flow of 25 μL·min^−1 for 8 min. The functionalized surface was then treated with repeated injection of 4 M NaCl, as a regenerating reagent, and conditioned overnight prior to use with pH 7.4 PBS (10 mM NaH2PO4 and 150 mM NaCl) as a running buffer. Each cycle (without the need of regeneration) for binding assay to HSA was carried out in PBS/4% v/v DMSO and consisted of a run buffer injection (60 s), injection of analyte single concentration for 120 s (ranging from 1 to 200 μM) at a flow 20 μL·min^−1, and a dissociation phase for 150 s (flow 20 μL·min^−1). Each measurement was performed at least in triplicate and analyzed by using QDAT software, vers 2.2.0.7 (non-linear regression analysis of 1:1 stoichiometric reversible binding model), and double referencing.
Data set [10] in a line: Hydrolytic stability monitored by RP-HPLC. It is filed as physicochemical. The following applies: 0.15 M KCl. The source says: In particular, the transformation of the DHPIQ-2-aldehyde via Mannich reaction (8b,c) opens the road to future developments of new water-soluble antiproliferative DHPIQ derivatives endowed with the ability to inhibit P-gp and reverse MDR.

Each structure is given as a SMILES string. In brackets after ≈: the same amount, converted by molar mass. Several values for one entry are separate records, joined by “and”; a condition that tells them apart may be missing. Equal entries are not always repeated. Where two headings read alike, the source gives them in different places. Where only a bound is given, the exact number is not on record here.

Sequence of multidrug-resistance-associated protein-1 (MRP1) (P33527 whole entry): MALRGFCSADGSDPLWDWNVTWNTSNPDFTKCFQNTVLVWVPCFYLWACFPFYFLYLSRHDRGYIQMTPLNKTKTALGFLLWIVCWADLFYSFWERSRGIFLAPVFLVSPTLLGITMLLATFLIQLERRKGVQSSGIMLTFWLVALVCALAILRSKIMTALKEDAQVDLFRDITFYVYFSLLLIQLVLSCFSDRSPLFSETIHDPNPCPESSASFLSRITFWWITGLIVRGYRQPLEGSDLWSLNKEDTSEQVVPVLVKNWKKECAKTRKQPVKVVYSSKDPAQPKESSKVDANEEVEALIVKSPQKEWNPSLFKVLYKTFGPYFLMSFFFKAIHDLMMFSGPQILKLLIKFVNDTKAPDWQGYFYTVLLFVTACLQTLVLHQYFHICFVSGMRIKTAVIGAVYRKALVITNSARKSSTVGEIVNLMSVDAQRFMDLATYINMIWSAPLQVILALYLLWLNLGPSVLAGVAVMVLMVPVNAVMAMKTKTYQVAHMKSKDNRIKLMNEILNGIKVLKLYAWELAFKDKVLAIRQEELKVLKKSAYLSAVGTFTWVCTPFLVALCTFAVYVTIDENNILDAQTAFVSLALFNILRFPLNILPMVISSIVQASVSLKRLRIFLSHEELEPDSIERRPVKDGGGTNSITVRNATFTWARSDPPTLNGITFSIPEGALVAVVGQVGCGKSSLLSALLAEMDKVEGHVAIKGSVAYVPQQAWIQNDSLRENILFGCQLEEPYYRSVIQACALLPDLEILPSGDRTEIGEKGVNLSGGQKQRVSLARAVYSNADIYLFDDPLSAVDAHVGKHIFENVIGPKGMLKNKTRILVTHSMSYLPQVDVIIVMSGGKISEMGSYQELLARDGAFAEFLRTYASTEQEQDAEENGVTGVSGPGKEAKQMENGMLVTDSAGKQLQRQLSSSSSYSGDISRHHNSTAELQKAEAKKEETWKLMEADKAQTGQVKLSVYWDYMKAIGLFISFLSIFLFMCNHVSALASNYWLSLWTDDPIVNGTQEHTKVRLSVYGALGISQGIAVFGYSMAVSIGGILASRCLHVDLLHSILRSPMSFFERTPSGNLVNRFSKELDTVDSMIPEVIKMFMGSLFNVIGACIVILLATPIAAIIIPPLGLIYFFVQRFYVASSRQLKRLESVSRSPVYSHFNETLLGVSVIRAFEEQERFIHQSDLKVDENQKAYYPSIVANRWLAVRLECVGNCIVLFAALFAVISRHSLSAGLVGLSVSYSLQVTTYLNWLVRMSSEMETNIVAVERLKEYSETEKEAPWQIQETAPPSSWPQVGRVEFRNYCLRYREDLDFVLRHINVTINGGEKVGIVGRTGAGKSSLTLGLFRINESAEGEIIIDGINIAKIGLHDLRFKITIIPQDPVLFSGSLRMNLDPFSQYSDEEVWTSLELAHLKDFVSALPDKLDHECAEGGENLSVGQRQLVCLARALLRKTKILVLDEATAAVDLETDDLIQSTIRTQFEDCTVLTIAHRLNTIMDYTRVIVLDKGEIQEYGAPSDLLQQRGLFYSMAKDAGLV
Sequence of P-glycoprotein (P-gp) (P08183 whole entry): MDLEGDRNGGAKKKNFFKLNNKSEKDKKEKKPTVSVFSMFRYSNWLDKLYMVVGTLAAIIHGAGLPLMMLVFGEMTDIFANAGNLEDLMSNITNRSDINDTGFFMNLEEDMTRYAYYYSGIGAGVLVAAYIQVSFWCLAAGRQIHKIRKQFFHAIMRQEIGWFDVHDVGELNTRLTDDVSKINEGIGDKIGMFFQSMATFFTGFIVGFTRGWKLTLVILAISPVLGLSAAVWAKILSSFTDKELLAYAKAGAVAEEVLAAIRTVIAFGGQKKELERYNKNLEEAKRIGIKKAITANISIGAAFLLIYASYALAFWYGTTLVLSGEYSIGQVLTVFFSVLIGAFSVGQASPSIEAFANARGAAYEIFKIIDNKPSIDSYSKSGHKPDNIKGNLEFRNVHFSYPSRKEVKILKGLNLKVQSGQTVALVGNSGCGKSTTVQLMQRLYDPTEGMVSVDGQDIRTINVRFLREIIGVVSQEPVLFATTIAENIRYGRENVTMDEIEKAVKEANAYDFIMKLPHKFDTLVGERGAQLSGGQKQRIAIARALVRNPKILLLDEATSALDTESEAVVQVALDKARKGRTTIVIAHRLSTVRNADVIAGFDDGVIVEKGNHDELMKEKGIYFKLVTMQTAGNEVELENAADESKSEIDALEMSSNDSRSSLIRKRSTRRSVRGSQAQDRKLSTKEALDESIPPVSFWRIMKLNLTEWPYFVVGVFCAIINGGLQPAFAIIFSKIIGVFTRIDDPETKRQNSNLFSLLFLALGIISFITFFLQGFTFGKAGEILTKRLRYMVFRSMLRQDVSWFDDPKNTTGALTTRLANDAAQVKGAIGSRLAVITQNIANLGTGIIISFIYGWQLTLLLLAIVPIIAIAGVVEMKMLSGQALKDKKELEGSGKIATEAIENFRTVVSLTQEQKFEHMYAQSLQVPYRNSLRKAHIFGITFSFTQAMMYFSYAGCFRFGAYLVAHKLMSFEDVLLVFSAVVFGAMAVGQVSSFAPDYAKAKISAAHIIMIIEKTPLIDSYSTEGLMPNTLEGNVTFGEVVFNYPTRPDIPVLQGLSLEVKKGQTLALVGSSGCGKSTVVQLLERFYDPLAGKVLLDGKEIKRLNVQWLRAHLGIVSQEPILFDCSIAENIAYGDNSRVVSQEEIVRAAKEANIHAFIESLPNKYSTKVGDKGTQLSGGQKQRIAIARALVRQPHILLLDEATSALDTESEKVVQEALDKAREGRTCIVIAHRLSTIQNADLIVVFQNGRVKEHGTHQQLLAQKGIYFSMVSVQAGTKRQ

Take `COc1cc2c(cc1OC)-c1c(-c3ccc(Cl)cc3)c(C#N)cn1CC2` [Compound 6a]: the IC50 in data set [1] is 16.6 µM; in data set [2], > 100 µM; in data set [3], > 100 µM; in data set [4] (P-gp, IC50, MDCK-MDR1 cells) it was 5.89 µM; in data set [7], > 100 µM; in [8] it was > 100 µM. Moreover, in [5], the “Log k′w” value was 4.42. The solubility at 2 h in data set [6] was found to be 1.42 µM (≈ 0.518 µg/mL). The Kd in data set [9] was 4.6 µM.
In the case of `COc1cccc2c1C(=O)c1c(O)c3c(c(O)c1C2=O)C[C@@](O)(C(=O)CO)C[C@@H]3O[C@H]1C[C@H](N)[C@H](O)[C@H](C)O1` [Doxorubicin, reference compound], the IC50 in [2] came to 0.38 µM; in [3], 0.89 µM; in [7] it was 0.14 µM; in [8], 0.29 µM.
Turning to `CCOc1ccc(-c2c(C#N)c(-c3ccccc3)n3c2-c2cc(OCC)c(OCC)cc2CC3)cc1OCC` [Compound 6e, 1-(3,4-Diethoxyphenyl)-8,9-diethoxy-3-phenyl-5,6-dihydropyrrolo [2,1-a]isoquinoline-2-carbonitrile], the melting point was 271 to 273 °C. Further, the IC50 in data set [8] is > 100 µM.
For the compound `COc1cc2c(cc1OC)CN(CCC=C1CCCc3c(OC)cccc31)CC2` [MC18, reference compound], the IC50 in data set [4] (read-out: P-gp, IC50, MDCK-MDR1 cells) was 1.2 µM.
As to `CCOc1ccc(-c2c(C(=O)O)cn3c2-c2cc(OCC)c(OCC)cc2CC3)cc1OCC` [Compound 5c, 1-(3,4-Diethoxyphenyl)-8,9-diethoxy-5,6-dihydropyrrolo[2,1-a]isoquinoline-2-carboxylic acid], the IC50 in data set [1] was > 100 µM; in [4] (P-gp, IC50, MDCK-MDR1 cells) it was < 0.5 µM and 0.35 µM. Further, the “P-gp/MRP1 selectivity (toward P-gp)” value in [4] is on record as “more than two orders of magnitude”. In data set [6], the solubility at 2 h amounted to 14.6 µM (≈ 6.8 µg/mL). The compound further returned a Kd in data set [9] of 5.2 µM.
With `CCOC(=O)c1cn2c(c1-c1ccc(OCC)c(OCC)c1)-c1cc(OCC)c(OCC)cc1CC2` [Compound 7c, Ethyl 1-(3,4-Diethoxyphenyl)-8,9-diethoxy-5,6-dihydro pyrrolo[2,1-a]isoquinoline-2-carboxylate], the IC50 was 3.23 µM in [1]; < 0.5 µM and 0.32 µM in data set [4] (P-gp, IC50, MDCK-MDR1 cells). In addition, the “Log k′w” value in [5] is reported as 5.49. In addition, the solubility at 2 h in [6] came out at 41.7 µM (≈ 20.6 µg/mL). In addition, in data set [9], binding was put at a Kd of 12.1 µM. Moreover, the “Hydrolytic stability at pH 2” value in data set [10] (0.01 M HClaq, pH 2, 25 °C) is “stable over 4 h”. In data set [10] (50 mM PBS, pH 7.4, 25 °C), the “Hydrolytic stability at pH 7.4” value was “stable over 4 h”.
For `CCOc1ccc(-c2c(C#N)cn3c2-c2cc(OCC)c(OCC)cc2CC3)cc1OCC` [Compound 6c], the IC50 in [1] was > 100 µM; in data set [2] it was > 100 µM; in [3], > 100 µM; in data set [4] (P-gp, IC50, MDCK-MDR1 cells) it was < 0.5 µM and 0.39 µM; in data set [7], > 100 µM; in data set [8] it was > 100 µM. In addition, the “P-gp/MRP1 selectivity (toward P-gp)” value in data set [4] was “more than two orders of magnitude”. For the same compound, the “Log k′w” value in data set [5] was 5.09. In [6], the solubility at 2 h came out at 1.06 µM (≈ 0.473 µg/mL). Also, the Kd in data set [9] is 1.8 µM.
As for `CCOc1ccc(-c2c(C#N)c(C)n3c2-c2cc(OCC)c(OCC)cc2CC3)cc1OCC` [Compound 6d, 1-(3,4-Diethoxyphenyl)-8,9-diethoxy-3-methyl-5,6-dihydropyrrolo[2,1-a]isoquinoline-2-carbonitrile], the IC50 in data set [2], in data set [3], in data set [7] and in data set [8] was > 100 µM each time.
Regarding `CC[C@@]1(O)C(=O)OCc2c1cc1n(c2=O)Cc2cc3ccccc3nc2-1` [Camptothecin, reference compound], the IC50 in data set [2] worked out at 3.32 µM; in data set [3] it was 0.33 µM; in data set [7], 12.3 µM; in data set [8], 16 µM.
As for `COc1ccc(-c2c(C=O)cn3c2-c2cc(OC)c(OC)cc2CC3)cc1` [Compound 4b], the IC50 in data set [1] was 6.42 µM; in data set [2], > 100 µM; in data set [3], > 100 µM; in data set [4] (P-gp, IC50, MDCK-MDR1 cells), 4.48 µM; in [7], > 100 µM; in data set [8] it was 95.2 µM. Besides, in [5], the “Log k′w” value is given as 3.39. Moreover, the solubility at 2 h in data set [6] came out at 19.8 µM (≈ 7.2 µg/mL). The Kd in data set [9] was 1.95 µM.
For the compound `COc1cc2c(cc1OC)-c1c(-c3ccc(Cl)cc3)c(C(=O)O)cn1CC2` [Compound 5a, 1-(4-Chlorophenyl)-8,9-dimethoxy-5,6-dihydropyrrolo[2,1-a]isoquinoline-2-carboxylic acid], the melting point was 210 to 215 °C. In addition, in data set [2], the IC50 was > 100 µM. Also, the IC50 in data set [3] is > 100 µM. Besides, the IC50 in [7] was > 100 µM. In [8], the IC50 was > 100 µM.

As usually defined, the IC50 is the midpoint of a concentration-inhibition curve. As a reminder, the solubility is how much of the substance goes into solution per volume. What is called Kd is the equilibrium constant for the complex coming apart. The low end stands for higher affinity, the high end for lower affinity. The term melting point denotes the temperature of the solid-liquid transition.
